One series deals with T1, substance P receptor (Homo sapiens, UniProt P25103).
T1 construct: endogenous in cells; host or cells: IM-9 human lymphoblast cells (membrane preparation)
The experiment in a line: Radioligand receptor binding inhibitory activity using receptor from human lymphoblast cells (IM-9). The conditions noted are these: [125I]-BHSP binding, receptor from IM-9 cells, 25 C, 30 min. Here is the method:
Radioligand receptor binding inhibitory activity (Binding inhibitory activity using receptor from human lymphoblast cells (IM-9))
The method of M. A. Cascieri et al., “Molecular Pharmacology 42, p. 458 (1992)” was modified and used. The receptor was. prepared from human lymphoblast cells (IM-9). IM-9 cells (2×10^5 cells/mL) were incubated for 3 days (one liter), which was then subjected to centrifuge for 5 min. at 500×G to obtain cell pellets. The obtained pellets were washed once with phosphate buffer (Flow Laboratories, CAT. No. 28-103-05), which were then homogenized using Polytron homogenizer (“Kinematika”, Germany) in 30 mL of 50 mM Tris-HCl buffer (pH 7.4) containing 120 mM sodium chloride, 5 mM potassium chloride, 2 μg/mL chymostatin, 40 μg/mL bacitracin, 5 μg/mL phosphoramidon, 0.5 mM phenylmethylsulfonyl fluoride, 1 mM ethylenediamine tetra-acetate, which was subjected to centrifuge at 40,000×G for 20 min. The residue was washed twice with 30 mL of the buffer, which was then preserved frozen (−80° C.) as a specimen of the receptor.
The specimen was suspended in a reaction buffer (50 mM Tris-HCl buffer (pH 7.4), 0.02% bovine serum albumin, 1 mM phenylmethylsulfonyl fluoride, 2 μg/mL chymostatin, 40 μg/mL bacitracin and 3 mM manganese chloride) to have protein in the concentration of 0.5 mg/mL of protein and 100 μL portion of the suspension was used in the reaction. After addition of the sample and ^125]-BHSP (0.46 KBq), the reaction was allowed to proceed in 0.2 mL of reaction buffer at […] for 30 min. The amount of nonspecific binding was determined by adding substance P at a final concentration of 2×10^−6 M.
After the reaction, using a cell harvester (290 PHD, Cambridge Technology, Inc, U.S.A.), filtration was carried out through a glass filter (GF/B, Whatman, U.S.A.), which was immersed in 0.1% polyethyleneimine for 24 hrs. and dried. After washing three times with 250 μL of 50 mM Tris-HCl buffer (pH 7.4) containing 0.02% bovine serum albumin, the radioactivity remaining on the filter was. determined with a gamma counter.
The antagonistic activity of each compound obtained in Examples was determined in terms of the concentration necessary to cause 50% inhibition (IC50 value) under the above-described conditions, and the results were shown in Table 14.
The radio ligand means substance P labeled with [^125I].

The subject of series [1] is urethane anesthetized male guinea pigs. The experiment in a line: Bladder capacity increasing action in urethane anesthetized guinea pigs. The conditions noted are these: for Changes in bladder capacity (vs before administration, %): mean ± S.E.M. In kind it is in vivo, guinea pig. Here is the method:
Bladder capacity increasing activity of substance P receptor antagonist (bladder capacity increasing action in urethane anesthetized guinea pigs)
A urinary frequency/urine incontinence suppressing effect of a substance having a substance P receptor antagonistic action was shown in terms of the ability to increase bladder capacity of urethane anesthetized male guinea pigs. After emptying the bladder by suction, saline warmed to 39° C. is infused into the bladder at a constant rate (0.3 mL/min.), until voiding. This procedure was repeated to confirm stable bladder capacity (amount of saline injected before induction of voiding). After confirming a stable response, a compound dissolved in DMSO was intravenously administered and the action was measured. Changes in the bladder capacity after drug administration were measured.

The results in this text go back to patent US20060142337A1, “Piperidine derivative and use thereof” (priority 2004, published 2006).

Molecules are shown by their SMILES.

T1 sequence (P25103 whole entry): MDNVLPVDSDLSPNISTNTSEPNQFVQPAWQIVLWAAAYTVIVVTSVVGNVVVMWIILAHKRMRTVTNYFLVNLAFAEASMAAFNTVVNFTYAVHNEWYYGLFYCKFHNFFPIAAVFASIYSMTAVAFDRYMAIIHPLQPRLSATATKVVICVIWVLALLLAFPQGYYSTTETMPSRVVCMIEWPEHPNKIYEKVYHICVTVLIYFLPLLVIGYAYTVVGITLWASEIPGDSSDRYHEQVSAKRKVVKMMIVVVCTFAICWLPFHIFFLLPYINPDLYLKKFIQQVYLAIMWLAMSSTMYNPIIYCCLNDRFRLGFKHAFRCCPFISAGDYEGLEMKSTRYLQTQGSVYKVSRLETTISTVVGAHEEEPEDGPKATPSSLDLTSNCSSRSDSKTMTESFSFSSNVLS

The melting point is the temperature of the solid-liquid transition. Consider `C[C@@H](O[C@@H]1CCNC[C@@H]1c1ccccc1)c1cc(C(F)(F)F)cc(C(F)(F)F)c1.Cl`, for which the melting point fell in the range of 150 to 152 °C.
Same read-out and setting: to `C[C@H](O[C@H]1CCNC[C@H]1c1ccccc1)c1cc(C(F)(F)F)cc(C(F)(F)F)c1.Cl` belongs 150 to 152 °C.
Usually IC50 stands for the concentration that gives 50% inhibition. High values mean a need for much substance, low ones inhibition by little substance. The molecule `CCC(=O)N[C@H]1CC[C@H](C(=O)N2CC[C@H](O[C@H](C)c3cc(C(F)(F)F)cc(C(F)(F)F)c3)[C@H](c3ccccc3)C2)CC1` [Example 43, N-[trans-4-[[(3R,4S)-4-[(1R)-1-[3,5-Bis(trifluoromethyl)phenyl]ethoxy]-3-phenylpiperidin-1-yl]carbonyl]cyclohexyl]propanamide] gave an IC50 at substance P receptor of 0.039 nM. The “Changes in bladder capacity (vs before administration, %)” value in series [1] (Table 16, 0.01 mg/kg intravenous) is given as 20.8 ± 5.6%; in series [1] (Table 16, 0.03 mg/kg intravenous), 19.3 ± 4.5%; in series [1] (Table 16, 0.1 mg/kg intravenous), 39.9 ± 4.9 %; in series [1] (Table 16, 0.3 mg/kg intravenous) it was 55.2 ± 13.3 %; in series [1] (Table 16, 1 mg/kg intravenous) it was 74.3 ± 11.1 %.
As for `CCNC(=O)[C@H]1CC[C@H](C(=O)N2CC[C@H](O[C@H](C)c3cc(C(F)(F)F)cc(C(F)(F)F)c3)[C@H](c3ccccc3)C2)CC1` [Example 69, trans-4-[[(3R,4S)-4-[(1R)-1-[3,5-Bis(trifluoromethyl)phenyl]ethoxy]-3-phenylpiperidin-1-yl]carbonyl]-N-ethylcyclohexanecarboxamide], the IC50 on substance P receptor was determined as 0.099 nM.
On substance P receptor, `CC(=O)N1CCC(NC(=O)N2CC[C@H](O[C@H](C)c3cc(C(F)(F)F)cc(C(F)(F)F)c3)[C@H](c3ccccc3)C2)CC1` [Example 71, (3R,4S)-N-(1-acetylpiperidin-4-yl)-4-[(1R)-1-[3,5-bis(trifluoromethyl)phenyl]ethoxy]-3-phenylpiperidine-1-carboxamide] registered an IC50 of 0.094 nM.
On substance P receptor, `CCC(=O)N1CCC(NC(=O)N2CC[C@H](O[C@H](C)c3cc(C(F)(F)F)cc(C(F)(F)F)c3)[C@H](c3ccccc3)C2)CC1` [Example 72, (3R,4S)-4-[(1R)-1-[3,5-Bis(trifluoromethyl)phenyl]ethoxy]-3-phenyl-N-(1-propionylpiperidin-4-yl)piperidine-1-carboxamide] showed an IC50 of 0.091 nM.
Turning to `CC(=O)NC1CCN(C(=O)N2CC[C@H](O[C@H](C)c3cc(C(F)(F)F)cc(C(F)(F)F)c3)[C@H](c3ccccc3)C2)CC1` [Example 73, N-[1-[[(3R,4S)-4-[(1R)-1-[3,5-bis(trifluoromethyl)phenyl]ethoxy]-3-phenylpiperidin-1-yl]carbonyl]piperidin-4-yl]acetamide], on substance P receptor, the IC50 turned out to be 0.097 nM.
On to `CCC(=O)NC1CCN(C(=O)N2CC[C@H](O[C@H](C)c3cc(C(F)(F)F)cc(C(F)(F)F)c3)[C@H](c3ccccc3)C2)CC1` [Example 74, N-[1-[[(3R,4S)-4-[(1R)-1-[3,5-bis(trifluoromethyl)phenyl]ethoxy]-3-phenylpiperidin-1-yl]carbonyl]piperidin-4-yl]propanamide], for which the IC50 at substance P receptor was determined as 0.087 nM.
Molecule `C[C@@H](O[C@H]1CCN(C(=O)C2CC(=O)NC(=O)C2)C[C@H]1c1ccccc1)c1cc(C(F)(F)F)cc(C(F)(F)F)c1` [Example 76, 4-[[(3R,4S)-4-[(1R)-1-[3,5-Bis(trifluoromethyl)phenyl]ethoxy]-3-phenylpiperidin-1-yl]carbonyl]piperidine-2,6-dione] showed an IC50 on substance P receptor of 0.084 nM.
The same measure, in the same setting: to `C[C@@H](O[C@H]1CCN(C(=O)C2CC(=O)N(C)C(=O)C2)C[C@H]1c1ccccc1)c1cc(C(F)(F)F)cc(C(F)(F)F)c1` [Example 77, 4-[[(3R,4S)-4-[(1R)-1-[3,5-Bis(trifluoromethyl)phenyl]ethoxy]-3-phenylpiperidin-1-yl]carbonyl]-1-methylpiperidine-2,6-dione] belongs 0.062 nM; to `C[C@@H](O[C@H]1CCN(C(=O)CC2NC(=O)NC2=O)C[C@H]1c1ccccc1)c1cc(C(F)(F)F)cc(C(F)(F)F)c1` (stereo partly drawn) [Example 78, 5-[2-[(3R,4S)-4-[(1R)-1-[3,5-Bis(trifluoromethyl)phenyl]ethoxy]-3-phenylpiperidin-1-yl]-2-oxoethyl]imidazolidine-2,4-dione], 0.096 nM; to `C[C@@H](O[C@H]1CCN(C(=O)C2CCN(C(=O)Cn3cncn3)CC2)C[C@H]1c1ccccc1)c1cc(C(F)(F)F)cc(C(F)(F)F)c1` [Example 119, (3R,4S)-4-{(1R)-1-[3,5-Bis(trifluoromethyl)phenyl]ethoxy}-3-phenyl-1-([1-(1H-1,2,4-triazol-1-ylacetyl)piperidin-4-yl]carbonyl}piperidine], 0.02 nM.
The same measure, in the same setting: the figure for `C[C@@H](O[C@H]1CCN(C(=O)C2CCN(C(=O)Cn3cccn3)CC2)C[C@H]1c1ccccc1)c1cc(C(F)(F)F)cc(C(F)(F)F)c1` [Example 122, (3R,4S)-4-{(1R)-1-[3,5-Bis(trifluoromethyl)phenyl]ethoxy}-3-phenyl-1-{[1-(1H-pyrazol-1-ylacetyl)piperidin-4-yl]carbonyl}piperidine] is 0.021 nM.
With `C[C@@H](O[C@H]1OCCN(Cc2n[nH]c(=O)[nH]2)[C@H]1c1ccc(F)cc1)c1cc(C(F)(F)F)cc(C(F)(F)F)c1` [MK-869, 5-[[(2R,3S)-2-[(1R)-1-[3,5-bis(trifluoromethyl)phenyl]ethoxy]-3-(4-fluorophenyl)-4-morpholinyl]methyl]-1,2-dihydro-3H-1,2,4-triazol-3-one, reference compound], the “Changes in bladder capacity (vs before administration, %)” value stood at 14.7 ± 4.8% in series [1] (Table 15, 0.1 mg/kg intravenous); 49.5 ± 10.3 % in series [1] (Table 15, 0.3 mg/kg intravenous); 71.2 ± 16.9 % in series [1] (Table 15, 1 mg/kg intravenous). Further, the voiding pressure result in series [1] (intravenous administration, urethane anesthetized guinea pigs) is recorded as “without affecting the voiding pressure”.
